The subject of one assay is sheep. In words: Serum IgG ELISA after vaccination of sheep. The assay is classed as in vivo. The conditions noted are these: for Dilution of serum three times background IgG response directed against BI100-cg2 antigen: 500 μg peptide in PBS; for Immune response in vaccinated sheep (in words): by itself or with two different standard adjuvants. The protocol:
100 μl of antigen as indicated (pre-incubated in Coating buffer—0.05M Na2CO3 pH9.6; denoted CB—in cold at 8 μg/ml 1-3 days) or just CB (background control) was used for coating wells in microtiter plates at 4° C. The microtiter plates are then washed 3× with washing buffer (PBS+1% v/v Triton-X100; denoted WB), followed by 2 h blocking at room temperature (RT) with 200 μl/well of blocking buffer (PBS+1% w/v BSA). Plates are then washed 3× with WB, followed by 1 h incubation at 37° C. with 50-70 ul/well of added human (or rabbit or sheep) sera (serial dilutions ranging from 1:5-1:250 in dilution buffer (PBS+1% v/v Triton-X100+1% w/v BSA; denoted DB)). Plates are then washed 6× with WB, followed by 1 h incubation at RT with 70 μl/well of Alkaline Phosphatase-conjugated Protein G (3 μg/ml in DB; Calbiochem 539305) or goat anti-mouse IgG biotin (1 μg/ml, Southern Biotech, 1030-08. In case of the goat anti-mouse IgG biotin, the plates were washed one extra step as described, before addition of 100 μl Streptavidin-Alkaline-Phosphatase (1 μg/ml, Sigma Aldrich, S289) and incubated 1 hour at RT. Plates are then washed 6× with WB, followed by 10-60 min incubation at room temperature with 100 μl/well of 0.3% w/v of Phenophtalein monophosphate (Sigma P-5758). Plates are finally quenched by adding 100 μl/well of Quench solution (0.1M TRIS+0.1M EDTA+0.5M NaOH+0.01% w/v NaN3; pH14), followed by a measurement with a ELISA reader (ASYS UVM 340) at 550 nm. The strength of the sera, i.e. the magnitude of the humoral immune response, is then reported as the dilution of sera that result in the described Optical Density (OD) value, or the OD value at the indicated dilution of sera.
The vaccination of sheep was done with 500 μg of peptide in PBS with the following adjuvants: ISA51 (vaccination week 1, 2, 3, 4, serum from week 6) and Freunds Adjuvant (vaccination weeks 1, 12, 26, serum from week 28). […] This indicate that the constructs can be combined with different adjuvants and induce an IgG response, a signal that an immunological memory has been elicited in sheep.

The test system of the next assay is human PBMC. In words: Influenza specific M2e response by ELISPOT assay (B cell response in stimulated PBMC). The assay is classed as cell-based.
For another assay, the system named is BALB/c mice. The experiment in a line: Serum IgG ELISA after vaccination of BALB/c mice. The assay is classed as in vivo. How it is done:
100 μl of antigen as indicated (pre-incubated in Coating buffer—0.05M Na2CO3 pH9.6; denoted CB—in cold at 8 μg/ml 1-3 days) or just CB (background control) was used for coating wells in microtiter plates at 4° C. The microtiter plates are then washed 3× with washing buffer (PBS+1% v/v Triton-X100; denoted WB), followed by 2 h blocking at room temperature (RT) with 200 μl/well of blocking buffer (PBS+1% w/v BSA). Plates are then washed 3× with WB, followed by 1 h incubation at 37° C. with 50-70 ul/well of added human (or rabbit or sheep) sera (serial dilutions ranging from 1:5-1:250 in dilution buffer (PBS+1% v/v Triton-X100+1% w/v BSA; denoted DB)). […] Plates are finally quenched by adding 100 μl/well of Quench solution (0.1M TRIS+0.1M EDTA+0.5M NaOH+0.01% w/v NaN3; pH14), followed by a measurement with a ELISA reader (ASYS UVM 340) at 550 nm. […]
Background: ELISA stands for enzyme-linked immunosorbent assay.

Assay [1] concerns New Zealand White female rabbits. In words: Rabbit immunizations with BI400-B vaccine, direct ELISA of sera. The assay is classed as in vivo. The protocol:
New Zealand White female rabbits (n=3) was immunized intradermally at weeks 0, 2 & 6 with 1 ml of BI400-B vaccine consisting of 500 μg BI400-B in 50% V/V Freund's adjuvant (i.e. Complete Freund's adjuvant used for priming, followed by boostings with Incomplete Freund's adjuvant). Individual blood serum was isolated for ELISA.
50-100 μl of BI400-B (pre-incubated in Coating buffer—0.05M Na2CO3 pH9.6; denoted CB—in cold at 16 μg/ml for each peptide 1-3 days prior to coating) or just CB (background control) is used for coating wells in microtiter plates at 4° C. overnight. The microtiter plates are then washed 3× with washing buffer (PBS+1% v/v Triton-X100; denoted WB), followed by 2 h blocking at room temperature (RT) with 200 μl/well of blocking buffer (PBS+1% w/v BSA). Plates are then washed 3× with WB, followed by 1 h incubation at 37° C. with 50-70 ul/well of added human (or rabbit) sera (serial dilutions ranging from 1:1-1:250 in dilution buffer (PBS+1% v/v Triton-X100+1% w/v BSA; denoted DB)). Plates are then washed 6× with WB, followed by 1 h incubation at RT with 70 μl/well of Alkaline Phosphatase-conjugated Protein G (3 μg/ml in DB; Calbiochem 539305). […] Plates are finally quenched by adding 100 μl/well of Quench solution (0.1M TRIS+0.1M EDTA+0.5M NaOH+0.01% w/v NaN3; pH14), followed by ELISA reader (ASYS UVM 340) at 550 nm.

[2] abbreviates: Freunds Adjuvant, vaccination weeks 1, 12, 26, serum from week 28.
[3] abbreviates: ISA51, vaccination week 1, 2, 3, 4, serum from week 6.

Ends that are not written are not given here.

In the case of “[RR][SL(Nle)TDIETP][GCG][IDTPIR][G][TPIBQDWG] [BI100-CG]”, the “Dilution of serum three times background IgG response directed against BI100-cg2 antigen” value stood at 11000 with sheep (setting [2]), 125 in the assay with sheep (setting [3]) and 25 in the assay on sheep (adjuvant None). The “Immune response in vaccinated sheep (in words)” value in the assay with sheep was “induced an immune response”.
For the substance “[WWGC][TDIET][CG][IDTPIR][G][TPIBQDWG] [BI100CGcyc]”, the results for the “Dilution of serum three times background IgG response directed against BI100-cg2 antigen” value in the assay on sheep (setting [2]), with sheep (setting [3]) and with sheep (adjuvant None) were 125, 25 and 25, respectively. The “Immune response in vaccinated sheep (in words)” value in the assay on sheep is listed as “induced an immune response”.
Regarding “[R][SLZTDIETP][Dpr(Aoa)][IDTPIR][G][TPIBQDWG] | [RR][IDTPIR][GG][TPI(Har)QEW][Dpr(Ser)][SLZTDIETPG] [BI150-2mod]”, in the assay with human PBMC (IgG), the “IgG specific B cell response in human PBMC (in words)” value is listed as “recognised by human memory cells”. In addition, in the assay on human PBMC (IgM), the “IgM B cell proliferation in human PBMC (in words)” value is recorded as “able to induce proliferation of IgM B cells”.
With “RRGNWAKVLKNWAKVI (SEQ ID NO: 130) | RRGLLADARVGCGSGADRVCS (SEQ ID NO: 131) (linker (positions not given here) via sulpho‑SMCC; also: sulpho-SMCC linker between Lys and Cys, places not given here) [BI350-1mod1, lysine of first peptide linked to cysteine of second peptide by a sulpho-SMCC linker]”, in the assay on BALB/c mice (IgG specific), the “Immune response in vaccinated mice (in words)” value is given as “induced a specific immune response”. Besides, in the assay with BALB/c mice (s.c. 100 μg peptide + Alhydrogel at weeks 1, 3, 7, serum from week 9), the “Serum IgG response (OD) directed against vaccine antigen, Mean (n = 6)” value is listed as 0.26 OD.
Take “GAKRRVVGGCGGAKRRVVQREKRAGEREKRA (SEQ ID NO: 121) | GKGGIEEEGGRDRDRGGEQDRDR (SEQ ID NO: 122) (thioether (positions not given here); not fully specified (bridges)) [BI400-B, peptides linked via Cys and Lys residues (thioether)]”: the “Character of antibodies generated in animal models (in words)” value in assay [1] (animal models) is on record as “comparable with antibodies elicited in natural HIV infection”. Besides, the “Antibody response after immunization (in words)” value in assay [1] (rabbits, intradermal 500 μg in Freund's adjuvant at weeks 0, 2 & 6) was “elicit an efficient antibody response”.

For the origin of these results see patent US10124059B2, “Dimeric scaffold peptides comprising HIV-1 GP120 and GP41 epitopes” (priority 2011, dated 2018).
